This passage reports IC50 results from publication PMC4751497, “Characterization of SCO4439, a D-alanyl-D-alanine carboxypeptidase involved in spore cell wall maturation, resistance, and germination in Streptomyces coelicolor” (Scientific Reports, 2016).

In general, IC50 refers to the concentration that gives 50% inhibition. Low readings indicate greater potency in that assay, high ones weaker potency in that assay.

The target of this experiment is T1, His6-SCO4439 (Streptomyces coelicolor, UniProt Q9KZY7).
T1 construct: whole SCO4439 gene with N-terminal His6 tag in pET11a (pBRB7), expressed in E. coli JM109 (DE3), HisTrap purified, tag kept; native protein 84 kDa; tag followed by VARED (from primer BRB7F)
T1 sequence (Q9KZY7 entry or part of it): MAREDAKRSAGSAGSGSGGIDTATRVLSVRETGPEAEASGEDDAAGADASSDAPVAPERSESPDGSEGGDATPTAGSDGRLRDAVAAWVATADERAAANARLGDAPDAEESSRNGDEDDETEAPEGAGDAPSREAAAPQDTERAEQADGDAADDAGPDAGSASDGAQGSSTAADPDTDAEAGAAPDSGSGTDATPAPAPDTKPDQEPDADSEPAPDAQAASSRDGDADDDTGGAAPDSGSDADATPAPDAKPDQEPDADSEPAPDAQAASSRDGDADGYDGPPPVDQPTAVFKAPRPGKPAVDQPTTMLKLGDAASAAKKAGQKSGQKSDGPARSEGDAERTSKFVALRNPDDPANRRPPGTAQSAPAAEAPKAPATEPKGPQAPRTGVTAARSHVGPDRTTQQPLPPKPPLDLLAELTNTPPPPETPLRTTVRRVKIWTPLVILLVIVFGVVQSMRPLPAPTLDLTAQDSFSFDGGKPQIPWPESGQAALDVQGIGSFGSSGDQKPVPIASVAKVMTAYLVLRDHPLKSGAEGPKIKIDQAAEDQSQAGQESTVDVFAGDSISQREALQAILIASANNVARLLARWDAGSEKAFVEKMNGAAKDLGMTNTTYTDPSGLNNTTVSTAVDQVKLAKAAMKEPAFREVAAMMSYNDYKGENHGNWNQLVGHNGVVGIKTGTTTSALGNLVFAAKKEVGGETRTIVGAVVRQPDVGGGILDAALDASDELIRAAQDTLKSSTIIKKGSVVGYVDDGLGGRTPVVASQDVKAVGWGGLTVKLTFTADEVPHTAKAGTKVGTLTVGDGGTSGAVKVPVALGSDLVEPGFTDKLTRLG
Put plainly: D-Ala release, D-amino acid oxidase-peroxidase coupled colorimetric assay. It counts as biochemical.

`CC1(C)S[C@@H]2[C@H](NC(=O)Cc3ccccc3)C(=O)N2[C@H]1C(=O)O` [penicillin G]: the IC50 worked out at 1000 µM.
